# Assay results as given in US4229435A, “Preparation of blood fraction” (priority 1978, dated 1980).
# Assays:
# F VIII = target: T1, F VIII (Homo sapiens, UniProt P00451); experiment: Coagulation factor VIII activity in plasma after reducing agent + iodoacetic acid; type: biochemical; details: 5 min 37° C., then iodoacetic acid
# T1 construct: from tissue; host or cells: human citrated blood plasma
# T1 sequence (P00451 20-1332 limits assumed): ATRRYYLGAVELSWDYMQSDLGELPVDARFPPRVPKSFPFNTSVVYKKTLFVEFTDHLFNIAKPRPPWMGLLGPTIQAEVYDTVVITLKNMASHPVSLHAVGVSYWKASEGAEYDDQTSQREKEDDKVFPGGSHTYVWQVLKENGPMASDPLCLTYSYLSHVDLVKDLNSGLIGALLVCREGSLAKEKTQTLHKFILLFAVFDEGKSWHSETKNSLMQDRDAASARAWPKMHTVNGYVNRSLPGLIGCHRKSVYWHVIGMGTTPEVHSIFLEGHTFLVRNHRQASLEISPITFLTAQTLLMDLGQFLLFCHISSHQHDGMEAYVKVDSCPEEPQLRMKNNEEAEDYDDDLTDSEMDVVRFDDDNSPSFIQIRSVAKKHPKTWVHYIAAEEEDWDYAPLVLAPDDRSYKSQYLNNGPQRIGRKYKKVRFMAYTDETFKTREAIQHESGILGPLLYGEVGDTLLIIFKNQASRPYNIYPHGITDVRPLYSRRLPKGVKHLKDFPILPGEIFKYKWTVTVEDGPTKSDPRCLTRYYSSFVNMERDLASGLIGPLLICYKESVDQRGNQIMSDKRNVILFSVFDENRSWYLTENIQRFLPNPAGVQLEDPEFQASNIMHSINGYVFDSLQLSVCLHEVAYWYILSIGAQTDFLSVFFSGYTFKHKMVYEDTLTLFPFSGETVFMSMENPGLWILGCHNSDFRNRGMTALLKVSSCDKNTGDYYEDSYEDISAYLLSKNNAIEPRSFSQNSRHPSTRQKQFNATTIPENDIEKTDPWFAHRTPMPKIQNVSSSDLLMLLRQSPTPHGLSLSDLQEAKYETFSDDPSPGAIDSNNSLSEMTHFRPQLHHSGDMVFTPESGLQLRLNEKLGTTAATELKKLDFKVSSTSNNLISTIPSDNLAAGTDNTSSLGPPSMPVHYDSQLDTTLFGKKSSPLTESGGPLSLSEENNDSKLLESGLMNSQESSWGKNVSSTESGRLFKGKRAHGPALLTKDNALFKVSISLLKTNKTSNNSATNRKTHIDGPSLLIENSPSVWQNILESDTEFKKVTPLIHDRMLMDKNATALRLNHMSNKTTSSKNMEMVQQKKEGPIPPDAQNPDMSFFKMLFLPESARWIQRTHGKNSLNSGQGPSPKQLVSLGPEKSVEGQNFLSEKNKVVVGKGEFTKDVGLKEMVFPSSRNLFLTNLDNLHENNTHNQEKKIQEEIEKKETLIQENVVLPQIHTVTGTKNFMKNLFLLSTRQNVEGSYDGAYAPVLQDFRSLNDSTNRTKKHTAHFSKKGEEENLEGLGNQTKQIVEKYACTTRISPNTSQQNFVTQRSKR
# T1 sequence (P00451 1668-2351 limits assumed): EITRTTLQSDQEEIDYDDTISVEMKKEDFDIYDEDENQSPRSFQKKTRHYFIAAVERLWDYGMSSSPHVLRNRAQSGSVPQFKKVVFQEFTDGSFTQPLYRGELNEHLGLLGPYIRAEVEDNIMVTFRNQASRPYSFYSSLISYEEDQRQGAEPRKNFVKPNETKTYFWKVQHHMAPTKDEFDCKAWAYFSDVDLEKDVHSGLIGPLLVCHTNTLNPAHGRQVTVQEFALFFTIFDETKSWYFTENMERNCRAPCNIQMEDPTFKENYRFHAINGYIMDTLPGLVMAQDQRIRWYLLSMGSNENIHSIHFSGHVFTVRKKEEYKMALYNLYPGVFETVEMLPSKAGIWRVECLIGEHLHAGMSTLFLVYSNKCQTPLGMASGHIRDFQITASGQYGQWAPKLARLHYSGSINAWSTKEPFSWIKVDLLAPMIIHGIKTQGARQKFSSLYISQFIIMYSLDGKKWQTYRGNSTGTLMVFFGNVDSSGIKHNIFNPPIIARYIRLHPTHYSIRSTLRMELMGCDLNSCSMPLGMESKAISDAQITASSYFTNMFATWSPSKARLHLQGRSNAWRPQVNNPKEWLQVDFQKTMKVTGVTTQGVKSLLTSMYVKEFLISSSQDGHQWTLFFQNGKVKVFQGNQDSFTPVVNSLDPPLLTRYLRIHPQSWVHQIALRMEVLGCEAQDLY
# Procedure: (§1) Human blood with anti-coagulating agent (9 parts blood+1 part 3.8% trisodium citrate) is centrifuged and the following tests with plasma were carried out:
# (§2) The plasma is divided into 8 ml portions, which are preheated at 37° C. for 5 min. DTT is added in different concentrations, see table 1 below, and is incubated for 5 min. at 37° C. Then iodoacetic acid, 3 mol per mol DTT, is added, and incubation takes place for 15 min. at 37° C. The plasma samples are distributed in portions of about 0.2 ml and are immediately frozen at -70° C. Testing of different coagulation factors is made in known manner.
# (§3) The plasma is divided into 8 ml portions, which are preheated at 37° C. for 5 min. DTE is added in different concentrations (see table 2), and is incubated for 5 minutes at 37° C. Then, iodoacetic acid (3 mol per mol DTE) is added and incubation is carried out for 15 minutes at 37° C. The plasma samples are distributed in portions of about 0.2 ml and are immediately frozen at -70° C. Testing of different coagulation factors is made in a manner known per se.
# as §3, with “minutes. Lipoic acid” for “min. DTE”, “3),” for “2),”, “lipoic acid)” for “DTE)”
# as §3, with “minutes. Mercaptoethanol” for “min. DTE”, “4),” for “2),”, “mercaptoethanol)” for “DTE)”
# as §3, with “minutes. Potassium borohydride” for “min. DTE”, “5,” for “2),”, “potassium borohydride)” for “DTE)”
# F XI = target: T2, F XI (Homo sapiens, UniProt P03951); experiment: Coagulation factor XI activity in plasma after reducing agent + iodoacetic acid; type: biochemical; details: 5 min 37° C., then iodoacetic acid
# T2 construct: from tissue; host or cells: human citrated blood plasma
# Procedure: as §1, §2, §3
# as §3, with “minutes. Lipoic acid” for “min. DTE”, “3),” for “2),”, “lipoic acid)” for “DTE)”
# as §3, with “minutes. Mercaptoethanol” for “min. DTE”, “4),” for “2),”, “mercaptoethanol)” for “DTE)”
# as §3, with “minutes. Potassium borohydride” for “min. DTE”, “5,” for “2),”, “potassium borohydride)” for “DTE)”
# [1] = human, 0.1 mg reducing agent/ml plasma (sample C)
# [2] = human, 0.6 mg reducing agent/ml plasma
# [3] = human, Table 1 sample D, 0.1 mg DTT/ml plasma
# [4] = plasma + 0.14 mg reducing agent
# [5] = plasma + 0.28 mg reducing agent
# T2 sequence (P03951 19-625): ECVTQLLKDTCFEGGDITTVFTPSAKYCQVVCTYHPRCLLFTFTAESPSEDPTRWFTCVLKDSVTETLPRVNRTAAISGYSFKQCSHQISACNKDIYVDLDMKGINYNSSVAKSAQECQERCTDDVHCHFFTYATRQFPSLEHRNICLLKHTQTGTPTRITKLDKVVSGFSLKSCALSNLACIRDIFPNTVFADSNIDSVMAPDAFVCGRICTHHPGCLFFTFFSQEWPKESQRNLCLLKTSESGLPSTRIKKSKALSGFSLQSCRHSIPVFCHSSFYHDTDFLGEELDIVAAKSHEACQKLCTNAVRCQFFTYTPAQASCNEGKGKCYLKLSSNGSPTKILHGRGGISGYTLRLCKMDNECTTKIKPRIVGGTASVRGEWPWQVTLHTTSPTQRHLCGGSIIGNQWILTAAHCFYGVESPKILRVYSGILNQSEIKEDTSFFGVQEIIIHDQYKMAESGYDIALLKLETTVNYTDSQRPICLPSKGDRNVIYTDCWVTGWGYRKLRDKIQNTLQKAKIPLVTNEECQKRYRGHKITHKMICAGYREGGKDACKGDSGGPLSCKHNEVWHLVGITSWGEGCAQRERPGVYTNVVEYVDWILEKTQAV
Compound,activity at 100 µg/mL (F VIII; [1]) [%],Coagulation factor F VIII (F VIII; plasma + 0.2 mg reducing agent),Coagulation factor F VIII (F VIII; plasma + 0.4 mg reducing agent),activity at 100 µg/mL (F XI; [1]) [%],Coagulation factor F XI (F XI; plasma + 0.2 mg reducing agent),Coagulation factor F XI (F XI; plasma + 0.4 mg reducing agent),activity at 600 µg/mL (F VIII; [2]) [%],activity at 100 µg/mL (F VIII; [3]) [%],activity at 600 µg/mL (F XI; [2]) [%],activity at 100 µg/mL (F XI; [3]) [%],Coagulation factor F VIII (F VIII; [4]),Coagulation factor F VIII (F VIII; [5]),Coagulation factor F XI (F XI; [4]),Coagulation factor F XI (F XI; [5])
"O[C@H](CS)[C@@H](O)CS [DTE, dithioerythritol]",108,116 % of control,93 % of control,66,3 % of control,0 % of control,–,–,–,–,–,–,–,–
"O[C@H](CS)[C@H](O)CS [DTT, dithiothreitol]",107,–,52 % of control,47,–,0 % of control,27,86,0,9,–,–,–,–
"[BH4-].[K+] [KBH4, potassium borohydride]",–,–,–,–,–,–,–,–,–,–,122 % of control,105 % of control,94 % of control,107 % of control
O=C(O)CCCCC1CCSS1 (stereo not shown) [lipoic acid],111,98 % of control,111 % of control,67,32 % of control,39 % of control,–,–,–,–,–,–,–,–
OCCS [mercaptoethanol],–,98 % of control,85 % of control,–,74 % of control,62 % of control,–,–,–,–,–,–,–,–
